Measurements as given in patent US20240238287A1, “PHARMACEUTICAL COMPOSITION FOR PREVENTING OR TREATING CANCER” (priority 2021, published 2024).

Key:
NCIN87 cells = assay: CyQUANT cell proliferation assay, intestinal subtype cell line; format: cell-based; details: DON 1, 50, 150 μM, CB839 1, 5, 25 μM, BPTES 5, 10, 25 μM, FIGS. 5 to 7
Method: (§1) NCIN87, an intestinal subtype cell line, and HS746T, a stem-like subtype cell line, were dispensed in a 96-well plate (black) with 5000 cells each, and replaced with glutamine-deficient culture medium (Gibco) the next day. Then, the cell lines were treated with DON (1 μM, 50 μM, 150 μM; selleckchem, cat no. S8620), CB839 (1 μM, 5 μM, 25 μM; cayman, cat no. S7655) or BPTES (5 μM, 10 μM, 25 μM; MCE, cat no. HY-12683) and the treatment time was 0 hours, and the cell culture medium was discarded at 24, […] and 72 hours, and stored in an ultra-low temperature freezer at −80° C. After culturing the cells stored in this way at room temperature, 200 μl of cell lysate containing GR dye contained in the cell viability assay kit (CyQUANT cell proliferation assay, Invitrogen) was placed in each well of the cultured cells and incubated at room temperature for 5 min. Afterwards, The intensity of fluorescence was measured at a wavelength of 480 nm and 520 nm excitation using a fluorescence photometer (thermo, varioskan flash 3001), and the measured value was standardized to the number of cells at 0 hour, quantified in %, and the value was shown in FIGS. 4 to 7.

HS746T cells [1] = assay: CyQUANT cell proliferation / viability assay, stem-like subtype cell line; format: cell-based; details: for cell proliferation: HS746T, DON 1, 50, 150 μM, CB839 1, 5, 25 μM, BPTES 5, 10, 25 μM, FIGS. 5 to 7; for survival of HS746T, inhibitor with glutamine deficiency vs each alone: Gln(−), PHGDH inhibitor 25 μM, SHMT inhibitor 1 μM, MTHFD2 inhibitor 0.5 μM, FIGS. 9 to 11
Method: as §1
As described in Example 4, after dispensing and incubating the stem-like subtype cell line HS746T, replacing it with a glutamine-deficient culture medium, administering a PHGDH inhibitor (25 μM), SHMT inhibitor (1 μM) or MTHFD2 inhibitor (0.5 μM), and using a cell viability assay kit, the survival rate measured using the cell viability assay kit was shown in FIGS. 9 to 11.

[2] = test system: glutamine-dependent liver cancer cells; details: cited from earlier work
[3] = test system: GA077 stem-like subtype organoid; assay: Organoid diameter by optical microscopy; format: cell-based; details: CB839 5 μM alone, D1 to D4, FIG. 8
SEM-type GC cells [4] = assay: Cell death by GLS/PHGDH inhibitor cotreatment and antioxidant rescue; format: cell-based; details: addition of antioxidant
SEM-type GC cells [5] = assay: Mitochondrial ROS estimated by MitoSOX; format: cell-based; details: NCT503 treatment and glutamine starvation
HS746T cells [6] = assay: Amount of NADP; format: cell-based; details: PHGDH-inhibited cells with glutamine deficiency
HS746T cells [7] = assay: Ratio of reduced (GSH) to oxidized glutathione (GSSG); format: cell-based; details: HS746T cultured without glutamine plus PHGDH inhibition

Row | Compound | cell proliferation (NCIN87 cells) | cell proliferation (HS746T cells [1]) | survival of HS746T, inhibitor with glutamine deficiency vs each alone (HS746T cells [1]) | also measured
1 | O=C(Cc1ccccc1)Nc1nnc(CCSCCc2nnc(NC(=O)Cc3ccccc3)s2)s1 [BPTES] | inhibited | not reduced | – | –
2 | O=C(Cc1cccc(OC(F)(F)F)c1)Nc1ccc(CCCCc2nnc(NC(=O)Cc3ccccn3)s2)nn1 [CB839] | inhibited | not reduced | – | antitumor effect of single-drug treatment [2]: very limited antitumor effect; organoid size (diameter) [3]: not reduced in size
3 | [N-]=[N+]=CC(=O)CC[C@H](N)C(=O)O [DON] | inhibited | not reduced | – | –
4 | Cc1c(N2CCN(C)[C@@H](C)C2)ccc2c3c(c(=O)oc12)CN(C(=O)c1ccc(NS(C)(=O)=O)c(OC(F)(F)F)c1)CC3 [MTHFD2i] | – | – | significant synergistic effect | –
5 | CC(=O)N[C@@H](CS)C(=O)O [NAC, N-acetylcysteine] | – | – | – | rescue of cell death induced by cotreatment with CB839 and NCT503 (SEM-type GC cells [4]): partially rescued
6 | Cc1cc(C)nc(NC(=S)N2CCN(Cc3ccc(C(F)(F)F)cc3)CC2)c1 [NCT503] | – | – | significant synergistic effect | mitochondrial ROS estimated by MitoSOX (SEM-type GC cells [5]): highest; amount of NADP (HS746T cells [6]): lowest; ratio of reduced glutathione (GSH) to oxidized glutathione (GSSG) (HS746T cells [7]): decreased
7 | Cc1n[nH]c2c1C(c1cc(CO)cc(-c3ccccc3)c1)(C(C)C)C(C#N)=C(N)O2 (stereo not drawn) [SHMTi] | – | – | significant synergistic effect | –
